According to patent US12582618B2, “Bis-biguanide compounds, pharmaceutical compositions and uses in managing cancer” (Emory University, priority 2019, dated 2026):

Test system: leader cell sub-population (H1299 leader cells)
Assay: drug screening of rare lung cancer cells isolated by spatiotemporal genomic and cellular analysis (SaGA)
Assay type: cell-based, human
Settings: rare lung cancer cells identified by SaGA, then drug screening; see FIG. 2A
Text: See e.g., Burrell et al., Nature, 2013, 501:338-345. Spatiotemporal genomic and cellular analysis (SaGA) is a technique which involves a combination of microscopy and genomics to isolate rare cells. See Konen et al. Nat Comm, 2017, 8:15078. Dendra2 is a photoconvertible fluorophore which emits green fluorescence. However, when excited by 405 nm light, green fluorescence is converted to red fluorescence due to cleavage of a histidine. Therefore, with single cell precision, any cancer cell expressing Dendra2 can be optically highlighted (turned red) using a point scanning confocal microscope. A region of interest is drawn around the cell(s) of interest, based upon by transmitted light or fluorescent protein tags. This region can be exposed to a 405 nm laser, resulting in near instantaneous photoconversion of Dendra2, and photomarking the cell red. Single cells can be photoconverted, without inducing any measurable photoconversion of neighboring cells. Cells are extracted from the 3-D environment using dispase for 15 minutes (collagenase for collagen). Cells are then sorted to separate red photoconverted cells from green cells using a FACS. Isolated cells are grown in culture using standard cell culture techniques. Spatiotemporal genomic and cellular analysis (SaGA) was used to identify rare lung cancer cells which were then subject to drug screening.

SMILES: CCCCC(CC)CNC(=N)NC(=N)NCCCCCCNC(=N)NC(=N)NCC(CC)CCCC (stereo not shown) [alexidine, 1,1′-(hexane-1,6-diyl)bis(5-(2-ethylhexyl)biguanidine)]
- effect on metastasis / invasive cell pack: disrupt metastasis by targeting a rare cell type within the invasive cell pack
